Laboratory results reported in US20140051679A1, “KINASE INHIBITORS AND METHOD OF TREATING CANCER WITH SAME” (UNIVERISTY HEALTH NETWORKS, priority 2011, published 2014).

What was measured:
[1] = test system: Ovarian TICs, 2393A ovarian; assay: Ovarian tumor-initiating cell growth inhibition (Alamar Blue); type: cell-based; details: 144 h, 6 days, read-out: GI50 range 2393A ovarian
Description: Materials and Methods: Non-tissue or tissure cultured treated T-75 flask and 96-well plates were purchased from VWR. Vitamin B-27 supplement, MEM NEAA (minimum essential medium non essential amino acids), sodium pyruvate, L-glutamine, N2 supplement, penicillin-streptomycin and fungizone/amphotericin B were obtained from Invitrogen. Lipid mixture, heparin and EGF were purchased from Sigma; bFGF from BD Biosciences. Colon tumor initiating cells (TICs) were routinely maintained using non-tissue cultured treated T-75 flasks in DMEM:F12 medium containing 0.2XB-27 supplement, 4 ug/ml heparin, 1XMEM NEAA, 1× sodium pyruvate, 1 mM glutamine, 10 pg/ul bFGF, 20 pg/ul EGF, 1×N2 supplement, lipid mixture, penicillin-streptomycin and fungizone/amphotericin B. Ovarian TICs were routinely maintained using tissue cultured treated T-75 flasks in DMEM:F12 medium containing 1XB-27 supplement, 4 ug/ml heparin, 20 pg/ul bFGF, 20 pg/ul EGF and penicillin-streptomycin.
Compounds described herein were dissolved in DMSO and further diluted in cell culture medium for GI50 determination. Colon TICs were trypsinized and seeded into non-tissue cultured treated 96-well plates with 4,000 cells/well. After 24 h, compound was added into the cell culture at different concentrations, and the final concentration of DMSO was adjusted to 0.1%. Cells were then cultured at 37° C. for 9 days. Ovarian TICs were trypsinized and seeded into tissue cultured treated 96-well plates with 1,000 cells/well. After 24 h, compound was added into the cell culture at different concentrations, and the final concentration of DMSO was adjusted to 0.1%. Cells were then cultured at 37° C. for 6 days. Cell viability was assessed by Alamar Blue assay: 10 ul of Alamar Blue was added into each well. After 4 hours incubation at 37° C., fluorescence was recorded at excitation 544 and emission 590. GI50 (Growth inhibition) was calculated using GraphPad Prism 4.0 software.

[2] = biological target: T1, Aurora B (Homo sapiens, UniProt Q96GD4); assay: Aurora B inhibition assay (Z-Lyte); type: biochemical; details: 28 nM Aurora B, 128 μM ATP; read-out: IC50 Ranges Aurora B
T1 construct: purchased Invitrogen PV3970
Experimental: Aurora B inhibition was determined using the Z-Lyte assay kit from Invitrogen. The assay was performed using the recommended manufacturer's instructions with 128 μM ATP and 28 nM Aurora B (Invitrogen cat #PV3970). The % inhibition values were determined according to the manufacturer's directions and IC50 values were obtained using a non-linear 4 point logistic curve fit (XLfit4, IDBS)

[3] = biological target: T2, human TTK (Homo sapiens, UniProt P33981); assay: TTK inhibition assay (indirect ELISA); type: biochemical; details: GST-TTK 0.68 nM, 16 μM ATP; read-out: IC50 Ranges TTK
T2 construct: amino terminal GST fusion of full length human TTK; purchased Invitrogen
T2 sequence (P33981 1-857): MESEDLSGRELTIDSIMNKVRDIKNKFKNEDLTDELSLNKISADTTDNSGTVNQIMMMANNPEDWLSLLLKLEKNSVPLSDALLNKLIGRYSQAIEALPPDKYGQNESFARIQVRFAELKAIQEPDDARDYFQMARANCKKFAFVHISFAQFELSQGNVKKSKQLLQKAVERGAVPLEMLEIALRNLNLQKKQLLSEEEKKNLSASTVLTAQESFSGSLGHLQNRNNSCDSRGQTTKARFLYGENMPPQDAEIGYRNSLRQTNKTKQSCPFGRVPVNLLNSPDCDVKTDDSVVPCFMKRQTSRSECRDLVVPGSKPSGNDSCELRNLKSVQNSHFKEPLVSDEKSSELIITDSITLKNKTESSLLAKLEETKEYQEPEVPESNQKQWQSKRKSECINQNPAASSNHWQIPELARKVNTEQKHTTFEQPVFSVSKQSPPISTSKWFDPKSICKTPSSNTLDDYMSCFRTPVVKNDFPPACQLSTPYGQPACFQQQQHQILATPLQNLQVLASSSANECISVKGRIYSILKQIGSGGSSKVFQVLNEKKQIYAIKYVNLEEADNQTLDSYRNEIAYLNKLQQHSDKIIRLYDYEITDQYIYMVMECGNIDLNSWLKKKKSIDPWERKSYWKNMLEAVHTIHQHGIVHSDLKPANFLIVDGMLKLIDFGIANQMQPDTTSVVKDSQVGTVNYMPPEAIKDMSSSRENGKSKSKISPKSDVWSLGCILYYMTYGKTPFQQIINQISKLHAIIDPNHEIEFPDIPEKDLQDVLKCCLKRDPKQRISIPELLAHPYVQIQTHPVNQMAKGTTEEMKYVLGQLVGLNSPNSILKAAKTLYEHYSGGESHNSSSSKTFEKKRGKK

[4] = test system: OVCAR-3 ovarian cancer cells; assay: Cell growth inhibition, Sulforhodamine B assay, OVCAR-3; type: cell-based; details: Homo sapiens, 120 h, 5 days culture, SRB assay, read-out: Cell Line GI50 Range OVCAR-3
[5] = biological target: T3, human PLK4 (Homo sapiens, UniProt O00444); assay: PLK4 inhibition assay (indirect ELISA); type: biochemical; details: GST-PLK4 4 nM, 15 μM ATP; read-out: IC50 Ranges PLK4
T3 construct: amino terminal GST fusion of residues 1-391 of human PLK4; made in house; host or cells: E. coli
T3 sequence (O00444 1-391): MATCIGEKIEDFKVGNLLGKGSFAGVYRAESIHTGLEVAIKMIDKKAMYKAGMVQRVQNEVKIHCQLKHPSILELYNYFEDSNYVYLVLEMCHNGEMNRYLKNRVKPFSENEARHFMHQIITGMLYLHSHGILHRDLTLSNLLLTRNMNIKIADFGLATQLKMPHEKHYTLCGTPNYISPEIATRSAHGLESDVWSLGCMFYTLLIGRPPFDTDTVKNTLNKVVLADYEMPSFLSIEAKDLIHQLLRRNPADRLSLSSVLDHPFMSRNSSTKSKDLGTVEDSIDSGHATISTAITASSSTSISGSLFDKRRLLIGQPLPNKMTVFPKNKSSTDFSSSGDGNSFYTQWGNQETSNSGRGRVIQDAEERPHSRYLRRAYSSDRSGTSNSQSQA
Method in brief: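 Compounds were tested either at a single 10 μM dose or across 10-point titrations (typically 0.5 to 0.001 μM), preincubated 15 min with 4 nM GST-PLK4 (human 1-391, dephosphorylated) before 15 μM ATP was added. MBP substrate phosphorylation over 30 min, pH 7.5 HEPES/MgCl2 buffer, read by HRP/TMB ELISA (450 nm). % inhibition vs. high-activity control; IC50 by logistic fit.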

[6] = test system: HCT116 colon cancer cells; assay: Cell growth inhibition, Sulforhodamine B assay, HCT116; type: cell-based; details: Homo sapiens, HCT-116, 120 h, 5 days culture, SRB assay, read-out: Cell Line GI50 Range HCT116
Experimental: Breast cancer cells (MDA-MB-231, MDA-MB-468), colon cancer cells (HCT116, HT29) and ovarian cancer cells (PA-1, OVCAR-3) were seeded (1000 to 4000 in 80 μl per well depending on the cell growth rate) into 96 well plates 24 hours before compound overlay. Compounds were prepared as 10 mM stock solutions in 100% DMSO which were diluted with DMEM (Dulbecco's Modified Eagle's Medium) cell growth Medium (Invitrogen, Burlington, ON, Canada) containing 10% FBS (Fetal Bovine Serum) to concentrations ranging from 50 nM to 250 μM. Aliquots (20 μl) from each concentration were overlaid to 80 μl of the pre-seeded cells in the 96 well plates to make final concentrations of 10 nM to 50 μM. The cells were cultured for 5 days before the Sulforhodamine B assay (SRB) was performed to determine the compound's cell growth inhibition activity.
Sulforhodamine B (purchased from Sigma, Oakville, ON, Canada) is a water-soluble dye that binds to the basic amino acids of the cellular proteins. Thus, colorimetric measurement of the bound dye provides an estimate of the total protein mass that is related to the cell number. the cells are fixed in situ by gently aspirating off the culture media and adding 50 μl ice cold 10% Trichloroacetic Acid (TCA) per well and incubate at 4° C. for 30-60 min, The plates are washed with water five times and allowed to air dry for 5 min. Addition of 50 μl 0.4% (w/v) SRB solution in 1% (v/v) acetic acid to each well and incubatation for 30 min at RT completes the staining reaction. Following staining, plates are washed four times with 1% acetic acid to remove unbound dye and then allowed to air dry for 5 min. The stain is solubilized with 100 μl of 10 mM Tris pH 10.5 per well. Absorbance is read at 570 nm.
The percentage (%) of relative growth inhibition was calculated by comparing to DMSO treated only cells (100%). […] The GI50 was calculated using GraphPad PRISM software (GraphPad Software, Inc., San Diego, Calif., USA).

[7] = test system: MDA-MB-468 breast cancer cells; assay: Cell growth inhibition, Sulforhodamine B assay, MDA-MB-468; type: cell-based; details: Homo sapiens, 120 h, 5 days culture, SRB assay, read-out: Cell Line GI50 Range MDA-MB-468
[8] = test system: HT29 colon cancer cells; assay: Cell growth inhibition, Sulforhodamine B assay, HT29; type: cell-based; details: Homo sapiens, HT-29, 120 h, 5 days culture, SRB assay, read-out: Cell Line GI50 Range HT29
[9] = test system: Colon tumor initiating cells (TICs), 12 colon; assay: Colon tumor-initiating cell growth inhibition (Alamar Blue); type: cell-based; details: 216 h, 9 days, read-out: GI50 range 12 colon
[10] = test system: MDA-MB-231 breast cancer cells; assay: Cell growth inhibition, Sulforhodamine B assay, MDA-MB-231; type: cell-based; details: Homo sapiens, 120 h, 5 days culture, SRB assay, read-out: Cell Line GI50 Range MDA-MB-231
[11] = test system: PA-1 ovarian cancer cells; assay: Cell growth inhibition, Sulforhodamine B assay, PA-1; type: cell-based; details: 120 h, 5 days culture, SRB assay, read-out: Cell Line GI50 Range PA-1

T1 sequence (Q96GD4 whole entry): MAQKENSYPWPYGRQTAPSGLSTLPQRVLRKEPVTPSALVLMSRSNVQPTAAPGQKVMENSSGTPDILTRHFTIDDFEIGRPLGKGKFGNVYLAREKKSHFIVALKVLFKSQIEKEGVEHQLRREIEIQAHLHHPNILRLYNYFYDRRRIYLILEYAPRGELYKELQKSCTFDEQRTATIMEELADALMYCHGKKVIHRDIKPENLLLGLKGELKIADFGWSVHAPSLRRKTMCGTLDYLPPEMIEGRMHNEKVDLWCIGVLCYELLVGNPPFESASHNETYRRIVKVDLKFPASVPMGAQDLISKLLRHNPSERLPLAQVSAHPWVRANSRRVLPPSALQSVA

CN1CCC(Oc2ccc(-c3n[nH]c4ccc(C(=O)NC(c5ccsc5)C5CC5)cc34)cc2)CC1 (stereo not shown) [Example A33, N-(cyclopropyl(thiophen-3-yl)methyl)-3-(4-((1-methylpiperidin-4-yl)oxy)phenyl)-1H-indazole-5-carboxamide]
≤ 5 µM: GI50 [1] | IC50 [2] | IC50 [3] | GI50 [4] | IC50 [5] | GI50 [6] | GI50 [7] | GI50 [8] | GI50 [9] | GI50 [10]

O=C(NC(c1ccsc1)C1CC1)c1ccc2[nH]nc(-c3ccc(N4CCOCC4)cc3)c2c1 (stereo not shown) [Example A35, N-(cyclopropyl(thiophen-3-yl)methyl)-3-(4-morpholinophenyl)-1H-indazole-5-carboxamide]
≤ 5 µM: GI50 [1] | IC50 [2] | IC50 [3] | GI50 [4] | IC50 [5] | GI50 [6] | GI50 [7] | GI50 [8] | GI50 [9] | GI50 [10]

CCc1cccc(CC)c1NC(=O)Nc1ccc2[nH]nc(-c3ccc(OC4CCN(C)CC4)cc3)c2c1 [Example A46]
≤ 5 µM: GI50 [1] | IC50 [2] | IC50 [3] | GI50 [4] | IC50 [5] | GI50 [6] | GI50 [7] | GI50 [8] | GI50 [9] | GI50 [10]

CC1(O)CCN(c2ccc(-c3n[nH]c4ccc(NC(=O)C(c5ccsc5)N5CCCC5)cc34)cc2)CC1 (stereo not shown) [Example A89, N-(3-(4-(4-hydroxy-4-methylpiperidin-1-yl)phenyl)-1H-indazol-5-yl)-2-(pyrrolidin-1-yl)-2-(thiophen-3-yl)acetamide]
≤ 5 µM: GI50 [1] | IC50 [2] | IC50 [3] | GI50 [11] | IC50 [5] | GI50 [6] | GI50 [7] | GI50 [8] | GI50 [9]

O=CN1CCC(Oc2ccc(-c3n[nH]c4ccc(NC(=O)C(c5ccsc5)N5CCCC5)cc34)cc2)CC1 (stereo not shown) [Example A118]
≤ 5 µM: GI50 [1] | IC50 [2] | IC50 [3] | GI50 [11] | IC50 [5] | GI50 [6] | GI50 [7] | GI50 [8] | GI50 [9]

O=CN1CCC(Oc2ccc(-c3n[nH]c4ccc(C(=O)NC(c5ccccn5)C5CC5)cc34)cc2)CC1 (stereo not shown) [Example A160, N-(cyclopropyl(pyridin-2-yl)methyl)-3-(4-((1-formylpiperidin-4-yl)oxy)phenyl)-1H-indazole-5-carboxamide]
≤ 5 µM: GI50 [1] | IC50 [2] | IC50 [3] | GI50 [11] | IC50 [5] | GI50 [6] | GI50 [7] | GI50 [8] | GI50 [9]

CN1CCC(Oc2ccc(-c3n[nH]c4ccc(C(=O)N[C@H](c5sccc5Cl)C5CC5)cc34)cc2)CC1 [Example A167, (S)—N-((3-chlorothiophen-2-yl)(cyclopropyl)methyl)-3-(4-((1-methylpiperidin-4-yl)oxy)phenyl)-1H-indazole-5-carboxamide]
≤ 5 µM: GI50 [1] | IC50 [2] | IC50 [3] | GI50 [11] | IC50 [5] | GI50 [6] | GI50 [7] | GI50 [8] | GI50 [9]

O=C(Nc1ccc2[nH]nc(-c3ccc(N4CCOCC4)cc3)c2c1)C(c1ccsc1)N1CCC1 (stereo not shown) [Example A172, 2-(azetidin-1-yl)-N-(3-(4-morpholinophenyl)-1H-indazol-5-yl)-2-(thiophen-3-yl)acetamide]
≤ 5 µM: GI50 [1] | IC50 [2] | IC50 [3] | GI50 [11] | IC50 [5] | GI50 [6] | GI50 [7] | GI50 [8] | GI50 [9]

CC(C)(O)C1CCN(c2ccc(-c3n[nH]c4ccc(C(=O)NC(c5ccccn5)C5CC5)cc34)cc2)CC1 (stereo not shown) [Example A180, N-(cyclopropyl(pyridin-2-yl)methyl)-3-(4-(4-(2-hydroxypropan-2-yl)piperidin-1-yl)phenyl)-1H-indazole-5-carboxamide]
≤ 5 µM: GI50 [1] | IC50 [2] | IC50 [3] | GI50 [11] | IC50 [5] | GI50 [6] | GI50 [7] | GI50 [9]

O=CN1CCC(Oc2ccc(-c3n[nH]c4ccc(C(=O)NC(c5ccccc5F)C5CC5)cc34)cc2)CC1 (stereo not shown) [Example A182, N-(cyclopropyl(2-fluorophenyl)methyl)-3-(4-((1-formylpiperidin-4-yl)oxy)phenyl)-1H-indazole-5-carboxamide]
≤ 5 µM: GI50 [1] | IC50 [2] | IC50 [3] | GI50 [11] | IC50 [5] | GI50 [6] | GI50 [7] | GI50 [9]

O=C(Nc1ccc2[nH]nc(-c3ccc(OC4CCN(C5COC5)CC4)cc3)c2c1)C(c1ccccc1)C1CC1 (stereo not shown) [Example A185, 2-cyclopropyl-N-(3-(4-((1-(oxetan-3-yl)piperidin-4-yl)oxy)phenyl)-1H-indazol-5-yl)-2-phenylacetamide]
≤ 5 µM: GI50 [1] | IC50 [2] | IC50 [3] | GI50 [11] | IC50 [5] | GI50 [6] | GI50 [7] | GI50 [9]

O=CN1CCC(Oc2ccc(-c3n[nH]c4ccc(C(=O)NC(c5ccsc5)C5CC5)cc34)cc2)CC1 (stereo not shown) [Example A186, N-(cyclopropyl(thiophen-3-methyl-3-yl)methyl)-3-(4-((1-formylpiperidin-4-yl)oxy)phen)-1H-indazole-5-carboxamide]
≤ 5 µM: GI50 [1] | IC50 [2] | IC50 [3] | GI50 [11] | IC50 [5] | GI50 [6] | GI50 [7] | GI50 [9]

O=C(NC(c1ccccc1)C1CC1)c1ccc2[nH]nc(-c3ccc(OC4CN(C5COC5)C4)cc3)c2c1 (stereo not shown) [Example A190, N-(cyclopropyl(phenyl)methyl)-3-(4-((1-(oxetan-3-yl)azetidin-3-yl)oxy)phenyl)-1H-indazole-5-carboxamide]
≤ 5 µM: GI50 [1] | IC50 [2] | IC50 [3] | GI50 [11] | IC50 [5] | GI50 [6] | GI50 [7] | GI50 [9]
